Results published in US8129424B2, “Indole derivatives as histamine 3 receptor inhibitors for the treatment of cognitive and sleep disorders, obesity and other CNS disorders” (Athersys, Inc., priority 2005, dated 2012).

Assays:
[1] = target: T1, human histamine H3 receptor (Homo sapiens, UniProt Q9Y5N1); assay: Calcium mobilization assay (FLIPR), inhibition of (R)-α-methylhistamine-stimulated Ca2+ flux in RAGE-H3 cells; assay type: cell-based; conditions: determined using FLIPR
T1 construct: expressed in transfected cells; host or cells: HT1080-Gqαi5 cells (human), pFG8-HH3 RAGE vector integrated; methotrexate-amplified clone RAGE-H3
Protocol: The human histamine H3 receptor was stably expressed in HT1080 cells containing the chimeric G-protein, Gq[…]i5 (Coward et al., Anal Biochem 1999; 270:242-8). HT1080-Gqαi5 cells were grown in alpha-modified MEM containing 10% fetal bovine serum and 7 μg/ml blasticidin at 37° C. in 5% CO2/95% atmosphere. Cells (4.8×10^9) were irradiated with 50 rads from a ^137Cs source and the pFG8-HH3 RAGE (Random Activation of Gene Expression; see Harrington et al., Nature Biotechnology. 2001; 19:440-45) vector was subsequently integrated into the cells via electroporation (250V, 600 μF, 50Ω). The RAGE vector pFG8-HH3 contained cDNA sequence coding for the first exon (83 amino acids) of human H3 receptor. After electroporation, cells were plated in T75 flasks and grown in alpha-modified MEM. The culture medium was replaced 48 hours after electroporation with alpha-modified MEM, 10% fetal bovine serum, 500 μg/ml hygromycin B and 3 μg/ml puromycin. Medium was replaced every four days during cell expansion. To identify RAGE activated cells expressing the H3 receptor, pools of approximately 10,000 colonies (5×10^7-1.5×10^8 cells total) were screened by PCR for the desired gene product (using primers specific to the RAGE vector and exon 2 of the H3 receptor). […] Positive 100 cells/well pools were identified by PCR, confirmed by sequencing, and subsequently subcloned to 0.8 cells/well. Once clones expressing the H3 receptor were identified by PCR analysis, assays (FLIPR or radioligand binding) were performed to confirm that the activated gene produced functional protein. The protein expression in the initial clones obtained from the RAGE library was increased by growth in the presence of methotrexate. Since the integrated RAGE vector contains the DHFR gene, such treatment selects for cells that have amplified the genetic locus containing the RAGE insert. Subclones obtained after methotrexate amplification were tested for functional activity in FLIPR assays to identify the clone that was most suitable for HTS. The final HT1080-Gqαi5 RAGE clone (RAGE-H3) expressing the human histamine H3 receptor was grown in alpha-modified MEM containing 10% fetal bovine serum, 3 μg/ml puromycin, 500 μg/ml hygromycin B, 3.2 μM methotrexate at 37° C. in 5% CO2/95% atmosphere.
RAGE-H3 or HT1080-mH3 cells were seeded in black 384-well plates and incubated overnight at 37° C. in a 5% CO2/95% atmosphere. After removing medium, cells were treated with CsCl Ringer's buffer (136 mM CsCl, 5.4 mM KCl, 5.5 mM D-Glucose, 20 mM Hepes, pH 7.4, 2.1 mM MgCl2, 1.2 mM CaCl2) containing the Calcium 3 dye (Molecular Device, CA) and probenecid (3.75 mM) for 60 minutes, according to manufacture's instruction. Compounds were diluted in CsCl Ringer's buffer containing 0.2% bovine serum albumin and 1.0% DMSO. The dose response of (R)-α-methylhistamine-stimulated Ca^2+ flux was measured on a Fluorometric Imaging Plate Reader (FLIPR, Molecular Devices, CA) and the concentration of (R)-α-methylhistamine to stimulate 75% of maximum response was used to test the inhibitory effect of compounds.
All data were analyzed by nonlinear least squares curve fitting using Prism 4.0 software. The KD and Bmax for [^125I]iodoproxyfan were derived from the equation RL=RtL/(KD+L), where RL is concentration of receptor-bound ligand at equilibrium, L is the free ligand concentration, and Rt is the total receptor concentration (i.e., Bmax). For competition binding experiments, IC50 values (the concentration of compound producing 50% inhibition of specific binding) and Hill Coefficients (nH) were derived from fitting the data to a 4-parameter logistic equation. Apparent Ki values were calculated using the Cheng-Prussof equation of Ki=IC50/(1+(L/KD)), where L is the ligand concentration. […]

H3 receptor [2] = target: T2, H3 receptor (Rattus norvegicus, UniProt Q9QYN8); conditions: rats; cited from earlier work
T2 construct: host or cells: living rats

H3 receptor [3] = conditions: in vivo studies; cited from earlier work
H3 receptor [4] = conditions: cat, cited from earlier work
[5] = cited from earlier work

T1 sequence (Q9Y5N1 whole entry): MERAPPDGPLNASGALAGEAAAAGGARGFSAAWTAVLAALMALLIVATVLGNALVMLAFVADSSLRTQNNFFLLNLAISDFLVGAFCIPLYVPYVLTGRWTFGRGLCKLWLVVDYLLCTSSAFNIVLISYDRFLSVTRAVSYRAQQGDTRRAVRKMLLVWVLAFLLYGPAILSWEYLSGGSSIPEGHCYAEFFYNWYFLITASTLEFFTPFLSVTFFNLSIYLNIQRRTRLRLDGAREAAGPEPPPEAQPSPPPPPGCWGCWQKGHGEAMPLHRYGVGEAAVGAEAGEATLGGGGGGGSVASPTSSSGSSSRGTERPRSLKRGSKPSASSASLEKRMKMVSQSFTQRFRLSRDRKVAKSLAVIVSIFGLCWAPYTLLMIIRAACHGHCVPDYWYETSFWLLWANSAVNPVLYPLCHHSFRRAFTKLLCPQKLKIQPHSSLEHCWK
T2 sequence (Q9QYN8 whole entry): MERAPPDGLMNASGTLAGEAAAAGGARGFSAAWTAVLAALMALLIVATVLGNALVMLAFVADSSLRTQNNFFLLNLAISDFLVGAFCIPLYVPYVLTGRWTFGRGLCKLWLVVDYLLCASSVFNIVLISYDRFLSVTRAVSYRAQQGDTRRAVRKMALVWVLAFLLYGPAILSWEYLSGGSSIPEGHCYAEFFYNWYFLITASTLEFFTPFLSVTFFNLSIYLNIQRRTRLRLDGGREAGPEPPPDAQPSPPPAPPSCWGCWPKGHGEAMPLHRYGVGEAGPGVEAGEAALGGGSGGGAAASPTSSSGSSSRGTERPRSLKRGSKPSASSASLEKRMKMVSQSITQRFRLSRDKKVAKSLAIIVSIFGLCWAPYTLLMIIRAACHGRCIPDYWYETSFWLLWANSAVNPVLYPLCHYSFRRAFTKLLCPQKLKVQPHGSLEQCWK

| SMILES | IC50 [1] [nM] | also measured |
| --- | --- | --- |
| COc1cc(-n2c(C)cc3ccccc32)ccc1OCCCN1CCCC1 [Example 14, 1-[3-Methoxy-4-(3-pyrrolidin-1-ylpropoxy)phenyl]-2-methyl-1H-indole] | < 1000 | – |
| COc1ccc2c(c1)cc(C)n2-c1ccc(C#CCCN2CCCC2)cc1 [Example 17, 5-Methoxy-2-methyl-1-[4-(4-pyrrolidin-1-ylbut-1-ynyl)phenyl]-1H-indole] | < 100 | – |
| c1ccc2c(c1)cc(C1CC1)n2-c1ccc(OCCCN2CCCC2)cc1 [Example 37, 2-Cyclopropyl-1-[4-(3-pyrrolidin-1-ylpropoxy)phenyl]-1H-indole] | < 100 | – |
| S=C(NC1CCCCC1)N1CCC(c2cnc[nH]2)CC1 [thioperamide] | – | slow-wave and REM sleep (H3 receptor [2]): decrease; wakefulness (H3 receptor [2]): increase wakefulness; synthesis and release of histamine (H3 receptor [3]): increase; wakefulness (H3 receptor [4]): enhanced wakefulness in a dose-dependent fashion; durations of every convulsive phase ([5]; after electrically-induced convulsions): significantly and dose-dependently decrease; electroconvulsive threshold ([5]; in vivo): increase |
| Brc1ccc2c(ccn2-c2ccc(OCCCN3CCCC3)cc2)c1 [Example 7, 5-Bromo-1-[4-(3-pyrrolidin-1-ylpropoxy)phenyl]-1H-indole] | < 1000 | – |
| COc1ccc2c(ccn2-c2ccc(OCCCN3CCCC3)cc2)c1 [Example 9, 5-Methoxy-1-[4-(3-pyrrolidin-1-ylpropoxy)phenyl]-1H-indole] | < 1000 | – |
| Cc1cc2ccccc2n1-c1ccc(OCCCN2CCCC2)c(Cl)c1 [Example 15, 1-[3-Chloro-4-(3-pyrrolidin-1-ylpropoxy)phenyl]-2-methyl-1H-indole] | < 1000 | – |
| c1ccc2c(c1)ccn2-c1ccc(OCCCN2CCCC2)cc1 [Example 4, 1-[4-(3-Pyrrolidin-1-ylpropoxy)phenyl]-1H-indole] | < 100 | – |
| COc1ccc2c(c1)cc(C)n2-c1ccc(OCCCN2CCCC2)cc1 [Example 5, 5-Methoxy-2-methyl-1-[4-(3-pyrrolidin-1-ylpropoxy)phenyl]-1H-indole] | < 100 | – |
| Cc1ccc2c(ccn2-c2ccc(OCCCN3CCCC3)cc2)c1 [Example 6, 5-Methyl-1-[4-(3-pyrrolidin-1-ylpropoxy)phenyl]-1H-indole] | < 1000 | – |
| Clc1ccc2c(ccn2-c2ccc(OCCCN3CCCC3)cc2)c1 [Example 10, 5-Chloro-1-[4-(3-pyrrolidin-1-ylpropoxy)phenyl]-1H-indole] | < 1000 | – |
| Clc1cccc2c1ccn2-c1ccc(OCCCN2CCCC2)cc1 [Example 8, 4-Chloro-1-[4-(3-pyrrolidin-1-ylpropoxy)phenyl]-1H-indole] | < 1000 | – |
| C[C@@H](N)Cc1cnc[nH]1 [RAMHA] | – | deep slow wave sleep (H3 receptor [4]; oral administration): significant increase |
